Patent publication US5539123A, “Low molecular weight thiocarbamates as inhibitors of elastase, uses and method of synthesis” (University of Kentucky Research Foundation, priority 1994, dated 1996)

Test system: Zymosan Induced Inflammation
Experiment: Zymosan-induced paw inflammation (arthritis) in rats, percent volume increase of the paw
Format: in vivo, rat
Settings: for % Oedema Volume change: 3.6 × 10^-4 mg/g IP vs control; for % Volume Increase, Mean of 3 experiments / % Volume Increase: 3.6 × 10^-4 mg/g IP
Source text: A reversible arthritic condition was induced according to known procedures for the Zymosan-induced arthritis (See J. P. Tarayre, A. Delphon, et al., Pharmacological studies in zymosan inflammation in rats and mice, I: Zymosan-induced paw edema in rat and mice, Pharmacological Research, 21, (#4) 375-384 (1989); Takuo Sato, Yoshitaka Ino, et al., Inhibitory effects of a novel synthetic protease inhibitor (FUT-175), on the paw edema in rats and Zymosan-induced compliment activation in vitro, Japan J. Pharmacol., 42,587-589 (1986); David K. Gremmell, et al., Comparative effects of drugs on four paw edema models on the rat, Agents and Actions 4, (#1) 107-116 (1979); and D. C. Keystone, et al., Zymosan-induced arthritis: A model of chronic proliferative arthritis following activation of the alternative pathway of compliment, Arthritis and Rheumatism 20 (#7) 1396-1401 (1977)).
Each rat (250 g each) was kept in a restraining cage with light ether anesthesia until the administration of the drug. The procedure involves the intramuscular (IM) injection of 1 mg of Zymosan in 50 μL (microliters) of normal saline in the pad of a hind paw of the rat. Swelling becomes evident within 20 minutes and reaches a maximum within 1.5 hours. The swelling disappears after 24 hours. In the Figures the reversal to normal size of the paw within 24 hours is not shown. The degree of swelling is measured by a water displacement method and the percent (%) of volume increase of the paw is plotted against time (see J. P. Tarayre, A. Delphon, et al., Pharmacological studies in zymosan inflammation in rats and mice. I: Zymosan-induced paw edema in rat and mice, Pharmaco-logical Research, 21, (#4) 375-384 (1989); Takuo Sato, Yoshitaka Ino, et al., Inhibitory effects of a novel synthetic protease inhibitor (FUT-175), on the paw edema in rats and Zymosan-induced compliment activation in vitro, Japan J. Pharmacol., 42, 587-589 (1986)).
Control was conducted by injecting I.P. 100 μl of propylene glycol (the vehicle) 15 min. prior to Zymosan administration. […] Data from tables 1 and 1a are plotted in FIGS. 1 and 1a respectively.
In the experimental procedure the drug [PC-16, […] (FIG. 2) or 90 μg/rat (FIG. 3)] is dissolved in 100 μL of propylene glycol and is injected IP to the rats. Fifteen minutes later the Zymosan (1mg/50 μL of normal saline) solution is injected IM into the paw of the rats. The degree of swelling is subsequently measured at various time intervals for a period of 24 hours and is reported up to 4 hours.

Structure (SMILES): CCCCNC(=O)Sc1nnnn1-c1ccccc1 [PC-16]
- percent volume increase of rat paw (36 μg/kg IP 15 min prior to Zymosan, 1.5 hour, control 60%): 20%
- swelling of rat paw (360 μg/kg IP 15 min prior to Zymosan): practically no swelling
- % Oedema Volume change (10 min): -85.0%
- % Oedema Volume change (20 min): -94.4%
- % Oedema Volume change (30 min): -94.2%
- % Oedema Volume change (40 min): -94.7%
- % Oedema Volume change (50 min): -95.1%
- % Oedema Volume change (60 min): -94.9%
- % Oedema Volume change (65 min): -94.8%
- % Oedema Volume change (70 min): -94.6%
- % Oedema Volume change (80 min): -93.8%
- % Oedema Volume change (95 min): -94.0%
- % Oedema Volume change (100 min): -94.3%
- % Oedema Volume change (105 min): -94.1%
- % Oedema Volume change (115 min): -93.7%
- % Oedema Volume change (120 min): -93.3%
- % Oedema Volume change (130 min): -94.1%
- % Oedema Volume change (135 min): -93.2%
- % Oedema Volume change (145 min): -92.6%
- % Oedema Volume change (150 min): -91.9%
- % Oedema Volume change (160 min): -91.6%
- % Oedema Volume change (175 min): -91.5%
- % Oedema Volume change (190 min): -91.9%
- % Oedema Volume change (200 min): -91.7%
- % Oedema Volume change (205 min): -91.3%
- % Oedema Volume change (210 min): -90.7%
- % Oedema Volume change (220 min): -90.6%
- % Oedema Volume change (225 min): -89.8%
- % Oedema Volume change (240 min): -90.9%
- % Volume Increase, Mean of 3 experiments (0 min): 0.00%
- % Volume Increase, Mean of 3 experiments (5 min): 0.89%
- % Volume Increase, Mean of 3 experiments (10 min): 1.43%
- % Volume Increase, Mean of 3 experiments (15 min): 1.43%
- % Volume Increase, Mean of 3 experiments (20 min): 1.61%
- % Volume Increase, Mean of 3 experiments (30 min): 2.19%
- % Volume Increase, Mean of 3 experiments (40 min): 2.37%
- % Volume Increase, Mean of 3 experiments (45 min): 2.00%
- % Volume Increase, Mean of 3 experiments (50 min): 2.37%
- % Volume Increase, Mean of 3 experiments (55 min): 2.92%
- % Volume Increase, Mean of 3 experiments (60 min): 2.92%
- % Volume Increase (65 min): 2.92%
- % Volume Increase (70 min): 3.13%
- % Volume Increase, Mean of 3 experiments (75 min): 3.34%
- % Volume Increase, Mean of 3 experiments (80 min): 3.52%
- % Volume Increase, Mean of 3 experiments (85 min): 3.52%
- % Volume Increase, Mean of 3 experiments (90 min): 3.52%
- % Volume Increase (95 min): 3.52%
- % Volume Increase, Mean of 3 experiments (100 min): 3.33%
- % Volume Increase (105 min): 3.49%
- % Volume Increase, Mean of 3 experiments (110 min): 3.65%
- % Volume Increase (115 min): 3.78%
- % Volume Increase, Mean of 3 experiments (120 min): 3.90%
- % Volume Increase, Mean of 3 experiments (125 min): 3.71%
- % Volume Increase, Mean of 3 experiments (130 min): 3.35%
- % Volume Increase (135 min): 3.53%
- % Volume Increase, Mean of 3 experiments (145 min): 3.71%
- % Volume Increase, Mean of 3 experiments (150 min): 3.90%
- % Volume Increase, Mean of 3 experiments (160 min): 3.90%
- % Volume Increase, Mean of 3 experiments (170 min): 3.52%
- % Volume Increase (175 min): 3.70%
- % Volume Increase, Mean of 3 experiments (180 min): 3.88%
- % Volume Increase, Mean of 3 experiments (190 min): 3.34%
- % Volume Increase (200 min): 3.41%
